Structures are written as SMILES. pIC50: −log10 of the molar value.

For assay [1], the target named is T1, P-selectin (Homo sapiens) (UniProt P16109).
T1 sequence (whole entry): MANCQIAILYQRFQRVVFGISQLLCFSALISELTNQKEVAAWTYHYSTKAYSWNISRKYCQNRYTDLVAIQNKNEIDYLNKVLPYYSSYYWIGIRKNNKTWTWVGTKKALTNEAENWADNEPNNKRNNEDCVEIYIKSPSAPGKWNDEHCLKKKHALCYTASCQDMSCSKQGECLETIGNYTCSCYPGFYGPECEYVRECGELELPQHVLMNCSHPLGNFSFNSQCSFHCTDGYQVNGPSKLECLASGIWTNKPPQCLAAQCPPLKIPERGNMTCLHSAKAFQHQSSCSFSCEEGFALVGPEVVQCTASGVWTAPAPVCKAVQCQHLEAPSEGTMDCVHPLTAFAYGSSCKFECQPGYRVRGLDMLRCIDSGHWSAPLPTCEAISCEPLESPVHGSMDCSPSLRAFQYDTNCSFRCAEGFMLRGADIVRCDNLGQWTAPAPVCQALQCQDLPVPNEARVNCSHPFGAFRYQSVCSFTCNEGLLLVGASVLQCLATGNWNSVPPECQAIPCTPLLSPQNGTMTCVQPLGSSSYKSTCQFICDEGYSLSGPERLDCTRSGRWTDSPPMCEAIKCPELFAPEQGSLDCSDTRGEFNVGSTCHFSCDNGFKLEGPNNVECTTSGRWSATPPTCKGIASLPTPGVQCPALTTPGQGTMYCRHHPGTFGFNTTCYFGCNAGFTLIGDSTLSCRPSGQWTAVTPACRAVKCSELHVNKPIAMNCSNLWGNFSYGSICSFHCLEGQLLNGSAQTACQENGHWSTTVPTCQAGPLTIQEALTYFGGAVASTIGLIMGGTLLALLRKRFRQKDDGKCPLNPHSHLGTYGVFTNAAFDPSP
Briefly: Inhibitory activity was evaluated In vitro in Selectin P mediated cell adhesion assay at a concentration of 30uM.

Assay [2] is described as follows: Cell cytotoxicity of compound was evaluated In vitro in P-selectin mediated cell adhesion assay at a concentration of 30 uM. Type of assay: functional.
Another assay concerns the target T2, P-selectin (Homo sapiens, UniProt P16109).
T2 sequence (P16109 whole entry): T1 sequence (whole entry)
Description: Inhibitory activity of compound against Selectin P/sLex binding was determined.

In the case of `CCCCCCCCCCCCCCC(CCCCCCCCCCCCCC)C(=O)N[C@@H](CO[C@@H]1O[C@@H](C)[C@@H](O)[C@H](O)[C@@H]1O)C(=O)N[C@@H](CCC(=O)O)C(=O)NC`, the inhibition (usually the change of the read-out against control, counted positive when it falls) in assay [1] came to 42.8%. This molecule also yielded a Death in assay [2] of 1.7%.

In the case of `CCCCCCCCCCCCCCC(CCCCCCCCCCCCCC)CNC(=O)c1cc(CSC2OC(C)C(O)C(O)C2O)cc(C(=O)NC(CCC(=O)O)C(=O)NC)c1` (centres undefined), in assay [1], the inhibition was -0.9%. This molecule showed a Death in assay [2] of 5.3%.

Take `CCCCCCCCCCCCCCC(CCCCCCCCCCCCCC)CNC(=O)c1cc(CSC2OC(C)C(O)C(O)C2O)cc(C(=O)O)c1` (centres undefined): in assay [1], the inhibition was determined as 75.7%. The Death in assay [2] stood at 1.9%. The pIC50 (in general, the IC50 on a negative log10 scale, so that one unit is a factor of ten) on P-selectin was 4.97.

On to `CCCCCCCCCCCCCCC(CCCCCCCCCCCCCC)CNC(=O)c1cc(CSC2OC(C)C(O)C(O)C2O)cc(C(=O)NCCC(=O)O)c1` (centres undefined), for which the inhibition in assay [1] was 31.3%. In assay [2], this molecule came in with a Death of 2.8%.

(Values after ChEMBL document CHEMBL1133941, “Drug design, synthesis, and evaluation of a non-sugar-based selectin antagonist” (Bioorg Med Chem Lett, 2001).)
